Patent US7754694B2, “Pyrrolo[2, 1-C][1, 4]benzodiazepine-glycoside prodrug useful as a selective anti tumor agent” (priority 2007, dated 2010)

Assays:
[1] = target: E. coli β-galactosidase (Escherichia coli, UniProt P00722); format: biochemical; conditions: in the presence of β-galactosidase, 60-90 minutes, 37° C., pH 7.2 (phosphate buffer)
Description: FIG. 1. A drawing illustrating the effect of the prodrug 1a 1 μmole was treated with 2 units of E. coli β galactosidase enzyme and the progress of the hydrolysis was monitored by reverse phase HPLC. HPLC conditions: C18 Reverse phase column. Mobile phase 40:60 CH3CN/ H2O, flow rate of 1 ml/ min. UV detection: wave length 254 nm.
The prodrug 1a 1 μmole was treated with 2 units of E. coli β galactosidase enzyme and the progress of the hydrolysis was monitored by reverse phase HPLC. The results are presented in the form of a graph as illustrated in FIG. 1. Biological Studies Of The Prodrugs

[2] = tested on: A375 cells; experiment: Cell cycle progression by FACS (subG1 and G2/M population) in A375 cells; format: cell-based, human; conditions: 1a 42 μM, 1b 23.4 μM
From the text: (§1) The cytotoxic effects of the newly synthesized compounds 1a and 1b and their respective PBD imines were examined by cell cycle progression experiments on human tumor cells, by using fluorescence-activated cell sorting (FACS) analysis, in the absence and in the presence of β-galactosidase enzyme. In the primary flow cytometric study, the DNA content of the cells was used as a major determinant for cell count. The subG1 population, a conspicuous indicator for cell death, presumably apoptosis, and G2/M population was also determined in HepG2 and A375 cell lines.

[3] = tested on: HepG2 cells; experiment: Cell cycle progression by FACS (subG1 and G2/M population) in HepG2 cells; format: cell-based, human
From the text: as §1
Next we evaluated the prodrugs for their activation efficiency by intracellular β-galactosidase, in human liver cancer, HepG2 cells.

Chain of E. coli β-galactosidase (P00722 2-1024): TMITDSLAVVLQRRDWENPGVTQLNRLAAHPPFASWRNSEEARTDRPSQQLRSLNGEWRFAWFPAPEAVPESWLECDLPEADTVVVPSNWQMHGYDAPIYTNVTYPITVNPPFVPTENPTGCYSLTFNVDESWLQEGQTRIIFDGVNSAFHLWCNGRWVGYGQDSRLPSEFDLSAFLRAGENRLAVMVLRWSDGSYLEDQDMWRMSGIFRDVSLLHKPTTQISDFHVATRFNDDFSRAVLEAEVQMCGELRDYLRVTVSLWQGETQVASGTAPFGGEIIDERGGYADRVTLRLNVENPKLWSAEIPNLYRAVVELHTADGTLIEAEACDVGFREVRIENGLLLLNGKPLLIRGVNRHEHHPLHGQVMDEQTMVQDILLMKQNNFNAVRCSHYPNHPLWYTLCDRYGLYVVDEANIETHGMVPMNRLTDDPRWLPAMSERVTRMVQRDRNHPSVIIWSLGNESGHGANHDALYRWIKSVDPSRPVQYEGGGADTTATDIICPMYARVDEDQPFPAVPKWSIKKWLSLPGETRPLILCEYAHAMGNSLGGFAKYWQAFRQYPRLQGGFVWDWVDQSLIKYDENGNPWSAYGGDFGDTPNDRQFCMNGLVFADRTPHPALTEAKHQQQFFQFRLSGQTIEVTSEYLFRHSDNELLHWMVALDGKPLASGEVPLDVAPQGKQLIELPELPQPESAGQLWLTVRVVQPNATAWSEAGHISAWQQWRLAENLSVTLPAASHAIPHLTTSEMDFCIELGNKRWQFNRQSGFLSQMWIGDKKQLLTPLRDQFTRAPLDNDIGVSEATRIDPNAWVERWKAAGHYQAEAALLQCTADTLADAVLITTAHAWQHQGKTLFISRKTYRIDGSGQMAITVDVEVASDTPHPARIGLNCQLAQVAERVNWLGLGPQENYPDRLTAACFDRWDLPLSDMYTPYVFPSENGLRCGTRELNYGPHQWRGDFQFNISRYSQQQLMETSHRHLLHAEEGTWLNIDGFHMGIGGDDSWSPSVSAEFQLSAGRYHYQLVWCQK

COc1cc2c(cc1OCCCOc1cc3c(cc1OC)C(=O)N1CCC[C@H]1[C@H](O)N3C(=O)OCc1ccc(O[C@@H]3O[C@H](CO)[C@H](O)[C@H](O)[C@H]3O)c([N+](=O)[O-])c1)N(C(=O)OCc1ccc(O[C@@H]3O[C@H](CO)[C@H](O)[C@H](O)[C@H]3O)c([N+](=O)[O-])c1)[C@@H](O)[C@@H]1CCCN1C2=O [Compound 1b, 1,1′-[[(propane-1,3-diyl)dioxy]-bis(11S,11aS)-10-(4-β-D -galactopyranosyloxy-3-nitrophenyl)methoxycarbonyl-11-hydroxy-7-methoxy-1,2,3,-10,11,11a-hexahydro-5H-pyrrolo[2,1-c][1,4]-benzodiazepin-5-one]]
activation of the prodrug by β-galactosidase [1]: activated to their corresponding carbinolamines
apoptosis / cell death in A375 cells with E. coli β-galactosidase ([2]; A375, with E. coli β-galactosidase): apoptosis identical to that of the parent drugs 6a and 6b respectively
amount of cell death in A375 cells in the absence of the enzyme ([2]; A375, without β-galactosidase): insignificant
cytometric profile / apoptotic response in HepG2 cells in the presence of E. coli β-galactosidase ([3]; HepG2, with added E. coli β-galactosidase): profile comparable to that of the parent drug 6b
cytometric profile / apoptotic response in HepG2 cells in the absence of E. coli β-galactosidase ([3]; HepG2, without added enzyme (intracellular β-galactosidase)): block in the G2/M phase of the cell cycle
